Experimental data published in patent US20110293746A1, “Modulation of Gsk-3Beta and Method of Treating Proliferative Disorders” (Agency For Science, Technology and Research, priority 2004, published 2011).
Entries after “also recorded” stand apart in the source; their conditions may differ.

Tests used:
[1] = tested on: LoVo cells; test: Apoptosis upon DNA damage; type: cell-based, Human; details: p53 wild-type, no Bax protein; data not shown
[2] = tested on: Bax; test: Bax conformational activation (IP with 6A7 antibody, Western blot) in HCT116 p53 −/− cells; type: cell-based, Human; details: same conditions
Description: (§1) Western blotting, immunoprecipitation and microarray analysis: Cells were scraped, collected and lysed as described previously (Yu, Q., et al. Cancer Res, 62: 5743-5748, 2002). Briefly, cells were lysed with cell lysis buffer (0.3% NP40, 1 mM EDTA, 50 mM Tris-HCl (pH 7.4), 2 mM EGTA, 1% Triton X-100, […], 25 mM NaF, 1 mM Na3VO4, 2 mM AEBSF, 5 μg/ml aprotinin, 1 μg/ml leupeptin) for 30 minutes on ice, and the lysates were clarified by centrifugation at 12,000×g for 15 minutes at 4° C. Protein concentration was quantified (Bio-Rad, Hercules, Calif.) and protein samples (50 μg) were separated by SDS/PAGE and transferred onto Immobilon™ membranes (Millipore, Bedford, Mass.). Antibodies against the following proteins were used: p53 (DO-1), p21, PARP, GSK-α/β, α-Tubulin, and β-actin (Santa Cruz Biotechnology), Puma (Ab-1, Oncogene), Bax (Sigma), phosphor-(Ser9/21)-GSK-3α/β and Caspase-9 (Cell Signaling Technologies), phosphor-(Tyr216/279)-GSK-3α/β (Upstate Biotechnologies), cytochrome c (BD PharMingen). To detect Bax conformational change, cells were lysed in 1% Chaps buffer and the soluble fraction was immunoprecipitated with anti-Bax monoclonal antibody (6A7, BD, PharMingen), followed by immunoblotting with anti-Bax polyclonal antibody. Microarray analysis was performed as described (Kho, P. S., et al. J Biol Chem, 279: 21183-21192, 2004).

[3] = tested on: RKO cells; test: FACS apoptosis (sub-G1); type: cell-based, Human; details: p53 wild-type, with ADR
Description: (§2) Cell culture and drug treatments: Human colon cancer cell line HCT116 and its derived isogenic p53^−/−, Puma^−/−, Bax^−/− and p53-inducible DLD cell lines were kindly provided by Dr. Bert Vogelstein (Johns Hopkins University, MD). RKO and RKO/E6 cells were from ATCC. Cells were cultured in DMEM containing 10% FBS. All culture reagents and media were from Invitrogen. 5-Fluorouracil, Adriamycin, etoposide and lithium chloride were purchased from Sigma. GSK-3β specific small molecule inhibitor LY2119301 was a gift from Eli Lilly (Indianapolis) and SB-216763, SB-415283 were obtained from BIOMOL.
(§3) FACS analysis of DNA content and caspase-3 activity: Cells were harvested and fixed in 70% ethanol. Fixed cells were stained with propidium iodide (50 μg/ml) after treatment with RNase (100 μg/ml). The stained cells were analyzed for DNA content by fluorescence-activated cell sorting (FACS) in a FACScalibur™ (Becton Dickinson Instrument, San Jose, Calif.). Cell cycle fractions were quantified using the CellQues™ software (Becton Dickinson). To measure caspase-3 activity, cells were fixed with Cytofix/Cytoperm™ solution (BD PharMingen) as instructed, and then stained with FITC-conjugated rabbit anti-active caspase-3 monoclonal antibody (BD PharMingen). Quantification of cells positive for the caspase-3 detection was performed by flow cytometry.

[4] = tested on: RKO/E6 cells; test: FACS apoptosis (sub-G1); type: cell-based, Human; details: p53-inactive, with ADR
Description: as §2, §3

[5] = molecular target: T1, GSK-3β (Homo sapiens, UniProt P49841); test: Immunoblot analysis of GSK-3 phosphorylation status in HCT116 cells; type: cell-based
T1 construct: endogenous in cells; host or cells: HCT116
Description: (§4) Protein concentration was quantified (Bio-Rad, Hercules, Calif.) and protein samples (50 μg) were separated by SDS/PAGE and transferred onto Immobilon™ membranes (Millipore, Bedford, Mass.). […] To detect Bax conformational change, cells were lysed in 1% Chaps buffer and the soluble fraction was immunoprecipitated with anti-Bax monoclonal antibody (6A7, BD, PharMingen), followed by immunoblotting with anti-Bax polyclonal antibody.
(§5) Subcellular fractionation: Cells were lysed in mitochondria lysis buffer (210 mM Mannitol, 70 mM Sucrose, 10 mM Hepes (pH, 7.4), 1 mM EDTA, protease inhibitor cocktail) with a Dounce homogenizer and subjected to centrifugation at 1000×g to pellet the nuclei. Post-nuclear supernatant was centrifuged at 10,000×g to pellet the mitochondria-enriched heavy membrane fraction, and the resulting supernatant was further centrifuged to obtain cytosolic fraction. Total proteins (30 μg) from cytosolic or mitochondrial fractions were subjected to immunoblot analysis.

[6] = molecular target: T2, GSK-3α (Homo sapiens, UniProt P49840); test: as above; type: cell-based
T2 construct: endogenous in cells; host or cells: HCT116
Description: as §4, §5

[7] = tested on: Bax; test: Bax conformational activation (IP with 6A7 antibody, Western blot); type: cell-based, Human; details: co-treatment with LY2119301 and ADR, etoposide or 5-FU, 24 h
Description: as §1

[8] = tested on: HCT116 cells infected with Ad-p53; test: Apoptosis and immunoblot in cells infected with adenovirus expressing p53; type: cell-based, Human
Description: as §1, §3
Adenoviral infections: Adenovirus Ad-LacZ and Ad-p53 were obtained from Dr. Shibin Zhou (Johns Hopkins University, Md.). Cells were grown to 50% confluence and infected with recombinant adenovirus as described (Yu, J., et al. Proc Natl Acad Sci USA, 96: 14517-14522, 1999). Twenty-four hours after the infection, cells were treated with drugs for the indicated times.

[9] = tested on: p53 and p53 targets in HCT116 cells; test: Immunoblot analyses of p53 and p53 targets; type: cell-based, Human
Description: as §1

[10] = tested on: p53-inducible DLD1 cells; test: Apoptosis and immunoblot in tetracycline-inducible p53 expressing cells; type: cell-based, Human
Description: as §2, §1, §3

[11] = tested on: p53 in HCT116 cells; test: p53 accumulation in cytosol and mitochondria (subcellular fractionation, Western blot); type: cell-based, Human; details: in the presence of LY2119301, etoposide 24 h
Description: as §1, §5

[12] = nuclear and cytoplasmic fractions
[13] = with ADR, etoposide or 5-FU, HCT116 (LY2119301 also RKO)

T2 sequence (P49840 whole entry): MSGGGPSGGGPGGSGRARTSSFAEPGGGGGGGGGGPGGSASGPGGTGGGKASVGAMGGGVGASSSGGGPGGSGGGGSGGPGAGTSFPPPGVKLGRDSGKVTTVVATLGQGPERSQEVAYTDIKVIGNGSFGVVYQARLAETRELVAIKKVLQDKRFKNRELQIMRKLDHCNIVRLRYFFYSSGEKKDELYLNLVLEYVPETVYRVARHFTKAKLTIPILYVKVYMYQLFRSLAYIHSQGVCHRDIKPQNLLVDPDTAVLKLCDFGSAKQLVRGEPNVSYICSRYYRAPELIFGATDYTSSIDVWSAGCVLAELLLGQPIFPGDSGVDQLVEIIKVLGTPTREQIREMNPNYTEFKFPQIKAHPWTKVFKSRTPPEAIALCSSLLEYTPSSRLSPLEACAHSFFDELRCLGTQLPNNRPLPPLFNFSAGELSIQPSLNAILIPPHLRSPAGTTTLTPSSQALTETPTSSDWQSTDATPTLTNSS
T1 sequence (P49841 whole entry): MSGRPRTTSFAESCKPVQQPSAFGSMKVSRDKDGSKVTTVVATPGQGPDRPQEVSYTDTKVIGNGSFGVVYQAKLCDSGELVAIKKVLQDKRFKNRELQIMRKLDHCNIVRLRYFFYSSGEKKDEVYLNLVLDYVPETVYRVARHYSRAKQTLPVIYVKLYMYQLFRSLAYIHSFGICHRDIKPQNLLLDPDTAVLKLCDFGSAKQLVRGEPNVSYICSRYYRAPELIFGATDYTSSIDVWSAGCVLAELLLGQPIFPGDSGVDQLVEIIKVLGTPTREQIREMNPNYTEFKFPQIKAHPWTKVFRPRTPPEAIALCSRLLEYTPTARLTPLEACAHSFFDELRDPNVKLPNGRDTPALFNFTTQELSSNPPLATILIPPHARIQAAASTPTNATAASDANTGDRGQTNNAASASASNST

CN1CCN(c2ccc(NCCNc3ccc([N+](=O)[O-])c(N)n3)nc2-c2ccc(Cl)cc2Cl)C(=O)C1 [LY2119301] was tested, and the “apoptosis induced by LY2119301 upon DNA damage” value [1] was “resistant”, the Bax conformation [2] was “no detectable change” and the “apoptotic effect on the p53 response” value [3] was “observed”. For the same compound, the “apoptotic effect on the p53 response” value [4] was “not”, the “activating tyrosine phosphorylation on GSK-3β” value ([5]; HCT116 whole lysate immunoblot) was “almost completely blocked” and the “inhibitory serine 9 phosphorylation on GSK-3β” value ([5]; HCT116 whole lysate immunoblot) was “increase”. The “tyrosine phosphorylation of GSK-3β” value [5, 12] was “blocked”, the “serine phosphorylation on GSK-3β in cytoplasm and nucleus” value ([5]; nuclear and cytoplasmic fractions, with or without DNA damage) was “triggered” and the “activating tyrosine phosphorylation on GSK-3α” value ([6]; HCT116 whole lysate immunoblot) was “almost completely blocked”. The “inhibitory serine 21 phosphorylation on GSK-3α” value ([6]; HCT116 whole lysate immunoblot) was “much lesser extent”, the “tyrosine phosphorylation of GSK-3α” value [6, 12] was “blocked” and the “levels of conformationally active Bax” value [7] was “dramatically increased”. The Bax activation ([8]; IP-Western, p53 over-expression plus LY2119301) was “similarly seen”, the “apoptosis induced by enforced p53 expression” value ([8]; LY2119301 24 h) was “significantly increased” and the “ectopically expressed p53 protein levels” value ([8]; immunoblot) was “no effect”. For the same compound, the “p53 dependent transcription of p21” value ([8]; immunoblot) was “no effect”, the Bax levels ([9]; HCT116 and RKO) was “no effect” and the “cleavage of PARP” value ([9]; cells treated with genotoxic agents) was “remarkably increased”. For the same compound, the “p53-mediated p21 induction” value [9, 13] was “prevents; also recorded: impaired”, the “p53 accumulation / stability in response to DNA damage” value [9, 13] was “prevents; also recorded: markedly and consistently impaired” and the “induction of Puma” value ([9]; with chemotherapeutic agents, HCT116 and RKO) was “impaired”. For the same compound, the Bax activation ([10]; IP-Western, p53 induction plus LY2119301) was “similarly seen”, the “ectopically expressed p53 protein levels” value ([10]; Western blot) was “no effect” and the “p53 dependent transcription of p21” value ([10]; Western blot) was “no effect”. The “apoptosis induced by enforced p53 expression” value ([10]; in the presence of LY2119301) was “significantly increased”, the “etoposide-induced p53 accumulation in cytosol” value [11] was “similarly decreased” and the “etoposide-induced p53 accumulation in mitochondria” value [11] was “similarly decreased”.
